Experimental data taken from EPA's ToxValDB 9.5 (doi:10.2903/j.efsa.2008.177r).
Values after ≈ are worked out from the molar mass of the structure shown.

Experiments:
Rattus norvegicus = settings: for LD50: mortality
Colinus virginianus = settings: for LD50: acute, oral, mortality; for NOEL: reproduction developmental
Daphnia magna = settings: chronic/long-term; duration: 21 days; reproduction
Apis mellifera = settings: acute; duration: 48 hours; dermal; mortality
Leuciscus idus = settings: acute; duration: 96 hours; mortality
Plant = settings: not reported; seedling emergence
Oncorhynchus mykiss = settings: chronic/long-term; duration: 28 days; growth
Bibionidae = settings: chronic/long-term; duration: 28 days
Typhlodromus pyri = assay: LR50; higher = less toxic; settings: acute; duration: 14 days; mortality
Aphidius rhopalosiphi = assay: LR50; higher = less toxic; settings: acute; duration: 48 hours; mortality

NC(Cc1ncn[nH]1)C(=O)O (centres undefined) [1,2,4-Triazole-3-alanine]
LD50 (Rattus norvegicus; acute, oral): > 5000 mg/kg-day
LD50 (Colinus virginianus; diet): 1310 mg/kg-day
LD50 (Colinus virginianus): > 5000 mg/kg-day

c1nc[nH]n1 [1H-1,2,4-Triazole]
LD50 (Rattus norvegicus; acute, oral): 1650 mg/kg-day

CC(C)(C)C(=O)C(Oc1ccc(Cl)cc1)n1cncn1 (centres undefined) [Triadimefon]
NOEL (Colinus virginianus): 43.5 mg/kg-day

CC(C)(C)C(O)C(Oc1ccc(Cl)cc1)n1cncn1 (centres undefined) [Triadimenol]
NOEC (Daphnia magna): 0.1 mg/L
LD50 (Rattus norvegicus; acute, oral, M): 689 mg/kg-day
NOAEL (Rattus norvegicus; acute, oral, clinical signs): 2 mg/kg-day
NOAEL (Rattus norvegicus; chronic, duration: 2 years, organ weight): 5 mg/kg-day
NOEL (Rattus norvegicus; reproduction developmental, M, growth): 8.88 mg/kg-day
NOAEL (Rattus norvegicus; reproduction developmental, body weight): 6 mg/kg-day
NOAEL (Rattus norvegicus; subchronic, clinical signs): 3.4 mg/kg-day
LD50 (Apis mellifera): > 200 µg/piece
LC50 (Tagia sp.; acute, mortality): 781 mg/kg
NOEC (Tagia sp.; chronic/long-term): 100 mg/kg
LC50 (Leuciscus idus): 17.4 µg/mL (≈ 58.8 µM)
LD50 (Colinus virginianus; diet): > 705 mg/kg-day
LD50 (Colinus virginianus): > 2000 mg/kg-day
NOEL (Colinus virginianus): 7.5 mg/kg-day
LEL (Plant): 125 g/ha
NOEC (Oncorhynchus mykiss): 3.13 mg/L
NOEC (Bibionidae): 0.1 mg/L
LR50 (Typhlodromus pyri): > 1250 g/ha
LR50 (Aphidius rhopalosiphi): > 1250 g/ha
